Assays:
BACE2 = BACE2 (Homo sapiens (Human), UniProt Q9Y5Z0); assay: In vitro enzymatic BACE2 FRET assay; format: biochemical; details: read-out: IC50 IP (μM) BACE2 Enzyme
Description: In Vitro Enzymatic BACE1 and BACE2 FRET (Fluorescence Resonance Energy Transfer) Assays (Enzyme Assay Data in Table 1)

Cathepsin D (CatD) = Cathepsin D (CatD) (Homo sapiens (Human), UniProt P07339); assay: CatD assay; format: biochemical; details: read-out: IC50 IP (μM) CatD
Cathepsin D (CatD), sequence (P07339 65-412, species assumed): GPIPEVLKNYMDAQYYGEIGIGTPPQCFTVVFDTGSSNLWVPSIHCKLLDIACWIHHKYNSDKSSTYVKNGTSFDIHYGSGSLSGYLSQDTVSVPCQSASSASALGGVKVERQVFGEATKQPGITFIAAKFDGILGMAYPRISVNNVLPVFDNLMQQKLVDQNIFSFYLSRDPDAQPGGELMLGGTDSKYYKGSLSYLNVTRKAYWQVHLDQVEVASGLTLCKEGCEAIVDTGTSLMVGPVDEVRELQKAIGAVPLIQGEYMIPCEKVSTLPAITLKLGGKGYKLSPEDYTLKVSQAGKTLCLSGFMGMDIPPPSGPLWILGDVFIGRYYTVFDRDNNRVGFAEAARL

BACE2, sequence (Q9Y5Z0 63-518): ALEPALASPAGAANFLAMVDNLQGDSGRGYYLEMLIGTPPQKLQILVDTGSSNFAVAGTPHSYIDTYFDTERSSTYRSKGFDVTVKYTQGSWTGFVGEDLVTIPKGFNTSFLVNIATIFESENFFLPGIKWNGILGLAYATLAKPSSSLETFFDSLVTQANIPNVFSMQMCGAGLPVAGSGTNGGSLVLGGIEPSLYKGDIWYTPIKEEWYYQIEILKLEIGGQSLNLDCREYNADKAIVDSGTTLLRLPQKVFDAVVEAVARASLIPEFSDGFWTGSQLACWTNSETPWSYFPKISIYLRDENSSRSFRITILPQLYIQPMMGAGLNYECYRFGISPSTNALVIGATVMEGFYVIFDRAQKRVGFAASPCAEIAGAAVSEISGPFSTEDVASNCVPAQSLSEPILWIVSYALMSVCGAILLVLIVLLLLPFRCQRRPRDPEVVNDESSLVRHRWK

Row | SMILES | IC50 (BACE2) | IC50 (Cathepsin D (CatD))
1 | CC1CCCN1C(=O)[C@]12C[C@H]1[C@@](C)(c1cc(/C=C(\F)c3ccc(C#N)cn3)ccc1F)N=C(N)S2 (stereo partly drawn) [Example 138, 6-((Z)-2-(3-((1S,5S,6S)-3-amino-5-methyl-1-(2-methylpyrrolidine-1-carbonyl)-2-thia-4-azabicyclo[4.1.0]hept-3-en-5-yl)-4-fluorophenyl)-1-fluorovinyl)nicotinonitrile] | 0.0924 µM | 70.9 µM
2 | C[C@]1(c2cc(/C=C(\F)c3ccc(C#N)cn3)ccc2F)N=C(N)S[C@@]2(C(=O)N3CCN(CC4CC4)CC3)C[C@H]21 [Example 141, 6-((Z)-2-(3-((1S,5S,6S)-3-amino-1-(4-(cyclopropylmethyl)piperazine-1-carbonyl)-5-methyl-2-thia-4-azabicyclo[4.1.0]hept-3-en-5-yl)-4-fluorophenyl)-1-fluorovinyl)nicotinonitrile] | 0.336 µM | 400 µM
3 | C[C@]1(c2cc(/C=C(\F)c3ccc(C#N)cn3)ccc2F)N=C(N)S[C@@]2(C(=O)N3CCNC(=O)C3)C[C@H]21 [Example 144, 6-((Z)-2-(3-((1S,5S,6S)-3-amino-5-methyl-1-(3-oxopiperazine-1-carbonyl)-2-thia-4-azabicyclo[4.1.0]hept-3-en-5-yl)-4-fluorophenyl)-1-fluorovinyl)nicotinonitrile] | 0.0282 µM | 400 µM
4 | COC(=O)[C@]12C[C@H]1[C@@](C)(c1cc(/C=C(\F)c3cnc(Br)cn3)ccc1F)N=C(N)S2 [Example 148, (1S,5S,6S)-methyl 3-amino-5-(5-((Z)-2-(5-bromopyrazin-2-yl)-2-fluorovinyl)-2-fluorophenyl)-5-methyl-2-thia-4-azabicyclo[4.1.0]hept-3-ene-1-carboxylate] | 1.03 µM | 231 µM
5 | C#CCOc1cnc(/C(F)=C/c2ccc(F)c([C@@]3(C)N=C(N)S[C@@]4(C(=O)N(C)C)C[C@H]43)c2)cn1 [Example 153, (1S,5S,6S)-3-amino-5-(2-fluoro-5-((Z)-2-fluoro-2-(5-(prop-2-yn-1-yloxy)pyrazin-2-yl)vinyl)phenyl)-N,N,5-trimethyl-2-thia-4-azabicyclo[4.1.0]hept-3-ene-1-carboxamide] | 0.0518 µM | 106 µM

The next compounds have a lower IC50 (BACE2) than those just listed; values first:

Row | IC50 (BACE2) | IC50 (Cathepsin D (CatD)) | SMILES
6 | 0.0174 µM | 42.6 µM | CC1CCCN(C(=O)[C@]23C[C@H]2[C@@](C)(c2cc(/C=C(\F)c4ccc(C#N)cn4)ccc2F)N=C(N)S3)C1 (stereo partly drawn) [Example 145, 6-((Z)-2-(3-((1S,5S,6S)-3-amino-5-methyl-1-(3-methylpiperidine-1-carbonyl)-2-thia-4-azabicyclo[4.1.0]hept-3-en-5-yl)-4-fluorophenyl)-1-fluorovinyl)nicotinonitrile]
7 | 0.0131 µM | 12.8 µM | C[C@]1(c2cc(/C=C(\F)c3ccc(C#N)cn3)ccc2F)N=C(N)S[C@@]2(C(=O)N3CCCC(c4ccccc4)C3)C[C@H]21 (stereo partly drawn) [Example 140, 6-((Z)-2-(3-((1S,5S,6S)-3-amino-5-methyl-1-(3-phenylpiperidine-1-carbonyl)-2-thia-4-azabicyclo[4.1.0]hept-3-en-5-yl)-4-fluorophenyl)-1-fluorovinyl)nicotinonitrile]
8 | 0.0127 µM | 152 µM | C[C@]1(c2cc(/C=C(\F)c3ccc(C#N)cn3)ccc2F)N=C(N)S[C@@]2(C(=O)N3CCCC(C#N)C3)C[C@H]21 (stereo partly drawn) [Example 143, 6-((Z)-2-(3-((1S,5S,6S)-3-amino-1-(3-cyanopiperidine-1-carbonyl)-5-methyl-2-thia-4-azabicyclo[4.1.0]hept-3-en-5-yl)-4-fluorophenyl)-1-fluorovinyl)nicotinonitrile]
9 | 0.00257 µM | 81.5 µM | C[C@]1(c2cc(/C=C(\F)c3ccc(C#N)cn3)ccc2F)N=C(N)S[C@@]2(C(=O)N3CCC(C(F)(F)F)CC3)C[C@H]21 [Example 139, 6-((Z)-2-(3-((1S,5S,6S)-3-amino-5-methyl-1-(4-(trifluoromethyl)piperidine-1-carbonyl)-2-thia-4-azabicyclo[4.1.0]hept-3-en-5-yl)-4-fluorophenyl)-1-fluorovinyl)nicotinonitrile]
